Measurements as given in patent US11274332B2, “Methods of administering 3,4-diaminopyridine” (SERB SA, priority 2011, dated 2022).
“And” between values parts separate entries of the source, which are not always exact repeats. Identical values can stand only once.

Assay: Food-effect crossover study, adverse events after single 20 mg amifampridine phosphate in healthy subjects (Examples 10, 11)
Format: in vivo
Protocol: This was a randomized, open-label, 2-treatment, 2-period crossover study with 44 completed subjects to assess the safety, tolerability, and the effect of food on the relative bioavailability of a single dose of amifampridine phosphate.
Safety was evaluated for all subjects who take at least one dose of 3,4-DAP. Safety was evaluated by recording the incidence of adverse events (AEs), physical examination, vital signs, concomitant medications, clinical laboratory assessments, and 12-lead electrocardiogram (ECG).
Analysis for the following safety parameters was carried out on the Safety Population: AEs which included all AEs, AEs by severity, drug-related AEs, deaths, SAEs, AEs leading to study discontinuation, and most frequent AEs, standard clinical laboratory tests, vital signs, ECG measurements, routine physical examinations, and prior and concomitant medications. The cut-off for frequency of AEs reported was determined based on the data. No formal statistical testing was performed for the safety analyses; only descriptive statistics were provided. Appropriate descriptive statistics for the safety data were determined using SAS Version 9.2.
AEs were coded according to the Medical Dictionary for Regulatory Activities (MedDRA; Version 13.0). […] The occurrence of AEs was assessed continuously from the time the subject signed the VID and consent. The reporting period for non-serious AEs was from the first dose to the final study visit. The investigator determined the severity of each event and the relationship of an AE to the IP and recorded it on the source documents and AE CRF. The nature, time of onset, duration, severity, and relationship to study drug was documented, including documentation of investigator assessment and review. All events were assessed to determine if the AE was serious.
The Investigator determined the severity of each event and the event was recorded on the source documents and AE CRF. A coding of “mild” meant there was no limitation of usual activities, “moderate” meant there was some limitation of usual activities, “severe” meant there was an inability to carry out usual activities.
The reporting period for AEs that met the criteria of an SAE began from the time of signing the VID and consent form through follow-up or early termination. […] Clinical Laboratory Assessments

Compound: Nc1ccncc1N.O=P(O)(O)O [amifampridine phosphate, 3,4-diaminopyridine phosphate]
- Abdominal Pain Upper, drug-related AE: % of subjects (Fasted N=45): 4%
- Abdominal Pain Upper, drug-related AE: events (Fasted N=45): 2
- Abdominal Pain Upper, drug-related AE: subjects (Fasted N=45): 2
- Abdominal Pain, drug-related AE: % of subjects (Fasted N=45): 7%
- Abdominal Pain, drug-related AE: events (Fasted N=45): 3
- Abdominal Pain, drug-related AE: subjects (Fasted N=45): 3
- Abdominal Tenderness, drug-related AE: % of subjects (Fasted N=45): 2%
- Abdominal Tenderness, drug-related AE: events (Fasted N=45): 1
- Abdominal Tenderness, drug-related AE: subjects (Fasted N=45): 1
- Acne, drug-related AE: % of subjects (Fasted N=45): 2%
- Acne, drug-related AE: events (Fasted N=45): 1
- Acne, drug-related AE: subjects (Fasted N=45): 1
- All treatment emergent AEs, Mild: % of subjects (Fasted N=45): 53%
- All treatment emergent AEs, Mild: events (Fasted N=45): 60
- All treatment emergent AEs, Mild: subjects (Fasted N=45): 24
- All treatment emergent AEs, Moderate: % of subjects (Fasted N=45): 2%
- All treatment emergent AEs, Moderate: events (Fasted N=45): 1
- All treatment emergent AEs, Moderate: subjects (Fasted N=45): 1
- All treatment emergent AEs, Severe: % of subjects (Fasted N=45): (0%) [0]
- All treatment emergent AEs, Severe: events (Fasted N=45): (0%) [0]
- All treatment emergent AEs, Severe: subjects (Fasted N=45): 0
- All treatment emergent AEs, Total: events (Fasted N=45): 61
- Constipation, drug-related AE: % of subjects (Fasted N=45): (0%) [0]
- Constipation, drug-related AE: events (Fasted N=45): (0%) [0]
- Constipation, drug-related AE: subjects (Fasted N=45): 0
- Diarrhoea, drug-related AE: % of subjects (Fasted N=45): 2%
- Diarrhoea, drug-related AE: events (Fasted N=45): 1
- Diarrhoea, drug-related AE: subjects (Fasted N=45): 1
- Discontinued due to adverse events: % of subjects (Fasted N=45): (0%) [0]
- Discontinued due to adverse events: events (Fasted N=45): (0%) [0]
- Discontinued due to adverse events: subjects (Fasted N=45): 0
- Dizziness, drug-related AE: % of subjects (Fasted N=45): 11%
- Dizziness, drug-related AE: events (Fasted N=45): 5
- Dizziness, drug-related AE: subjects (Fasted N=45): 5
- Dysgeusia, drug-related AE: % of subjects (Fasted N=45): 2%
- Dysgeusia, drug-related AE: events (Fasted N=45): 1
- Dysgeusia, drug-related AE: subjects (Fasted N=45): 1
- Fatigue, drug-related AE: % of subjects (Fasted N=45): 2%
- Fatigue, drug-related AE: events (Fasted N=45): 1
- Fatigue, drug-related AE: subjects (Fasted N=45): 1
- Feeling Hot, drug-related AE: % of subjects (Fasted N=45): 2%
- Feeling Hot, drug-related AE: events (Fasted N=45): 1
- Feeling Hot, drug-related AE: subjects (Fasted N=45): 1
- Flushing, drug-related AE: % of subjects (Fasted N=45): (0%) [0]
- Flushing, drug-related AE: events (Fasted N=45): (0%) [0]
- Flushing, drug-related AE: subjects (Fasted N=45): 0
- Gastrointestinal Disorders Total, drug-related AE: % of subjects (Fasted N=45): 16%
- Gastrointestinal Disorders Total, drug-related AE: events (Fasted N=45): 10
- Gastrointestinal Disorders Total, drug-related AE: subjects (Fasted N=45): 7
- General Disorders and Administration Site Conditions Total, drug-related AE: % of subjects (Fasted N=45): 4%
- General Disorders and Administration Site Conditions Total, drug-related AE: events (Fasted N=45): 2
- General Disorders and Administration Site Conditions Total, drug-related AE: subjects (Fasted N=45): 2
- Headache, drug-related AE: % of subjects (Fasted N=45): 9%
- Headache, drug-related AE: events (Fasted N=45): 4
- Headache, drug-related AE: subjects (Fasted N=45): 4
- Hypoaesthesia Facial, drug-related AE: % of subjects (Fasted N=45): 2%
- Hypoaesthesia Facial, drug-related AE: events (Fasted N=45): 1
- Hypoaesthesia Facial, drug-related AE: subjects (Fasted N=45): 1
- Hypoaesthesia Oral, drug-related AE: % of subjects (Fasted N=45): 7%
- Hypoaesthesia Oral, drug-related AE: events (Fasted N=45): 3
- Hypoaesthesia Oral, drug-related AE: subjects (Fasted N=45): 3
- Hypoaesthesia, drug-related AE: % of subjects (Fasted N=45): 4%
- Hypoaesthesia, drug-related AE: events (Fasted N=45): 2
- Hypoaesthesia, drug-related AE: subjects (Fasted N=45): 2
- Nausea, drug-related AE: % of subjects (Fasted N=45): 7%
- Nausea, drug-related AE: events (Fasted N=45): 3
- Nausea, drug-related AE: subjects (Fasted N=45): 3
- Nervous System Disorders Total, drug-related AE: % of subjects (Fasted N=45): 47%
- Nervous System Disorders Total, drug-related AE: events (Fasted N=45): 43
- Nervous System Disorders Total, drug-related AE: subjects (Fasted N=45): 21
- Paraesthesia Oral, drug-related AE: % of subjects (Fasted N=45): 29%
- Paraesthesia Oral, drug-related AE: events (Fasted N=45): 15
- Paraesthesia Oral, drug-related AE: subjects (Fasted N=45): 13
- Paraesthesia, drug-related AE: % of subjects (Fasted N=45): 22%
- Paraesthesia, drug-related AE: events (Fasted N=45): 12
- Paraesthesia, drug-related AE: subjects (Fasted N=45): 10
- Possibly or probably related AEs, Mild: % of subjects (Fasted N=45): 47%
- Possibly or probably related AEs, Mild: events (Fasted N=45): 55
- Possibly or probably related AEs, Mild: subjects (Fasted N=45): 21
- Possibly or probably related AEs, Moderate: % of subjects (Fasted N=45): 2%
- Possibly or probably related AEs, Moderate: events (Fasted N=45): 1
- Possibly or probably related AEs, Moderate: subjects (Fasted N=45): 1
- Possibly or probably related AEs, Severe: % of subjects (Fasted N=45): (0%) [0]
- Possibly or probably related AEs, Severe: events (Fasted N=45): (0%) [0]
- Possibly or probably related AEs, Severe: subjects (Fasted N=45): 0
- Possibly or probably related AEs, Total: % of subjects (Fasted N=45): 47%
- Possibly or probably related AEs, Total: events (Fasted N=45): 56
- Possibly or probably related AEs, Total: subjects (Fasted N=45): 21
- Serious adverse events: % of subjects (Fasted N=45): (0%) [0]
- Serious adverse events: events (Fasted N=45): (0%) [0]
- Serious adverse events: subjects (Fasted N=45): 0
- Skin and Subcutaneous Tissue Disorders Total, drug-related AE: % of subjects (Fasted N=45): 2%
- Skin and Subcutaneous Tissue Disorders Total, drug-related AE: events (Fasted N=45): 1
- Skin and Subcutaneous Tissue Disorders Total, drug-related AE: subjects (Fasted N=45): 1
- Vascular Disorders Total, drug-related AE: % of subjects (Fasted N=45): (0%) [0]
- Vascular Disorders Total, drug-related AE: events (Fasted N=45): (0%) [0]
- Vascular Disorders Total, drug-related AE: subjects (Fasted N=45): 0
- All treatment emergent AEs, Total: subjects (Fasted N=45, phosphate): 23 and 24
- Abdominal Pain Upper, drug-related AE: % of subjects (Fed N=46): (0%) [0]
- Abdominal Pain Upper, drug-related AE: events (Fed N=46): (0%) [0]
- Abdominal Pain Upper, drug-related AE: subjects (Fed N=46): 0
- Abdominal Pain, drug-related AE: % of subjects (Fed N=46): (0%) [0]
- Abdominal Pain, drug-related AE: events (Fed N=46): (0%) [0]
- Abdominal Pain, drug-related AE: subjects (Fed N=46): 0
- Abdominal Tenderness, drug-related AE: % of subjects (Fed N=46): (0%) [0]
- Abdominal Tenderness, drug-related AE: events (Fed N=46): (0%) [0]
- Abdominal Tenderness, drug-related AE: subjects (Fed N=46): 0
- Acne, drug-related AE: % of subjects (Fed N=46): (0%) [0]
- Acne, drug-related AE: events (Fed N=46): (0%) [0]
- Acne, drug-related AE: subjects (Fed N=46): 0
- All treatment emergent AEs, Mild: % of subjects (Fed N=46): 48%
- All treatment emergent AEs, Mild: events (Fed N=46): 38
- All treatment emergent AEs, Mild: subjects (Fed N=46): 22
- All treatment emergent AEs, Moderate: % of subjects (Fed N=46): 2%
- All treatment emergent AEs, Moderate: events (Fed N=46): 1
- All treatment emergent AEs, Moderate: subjects (Fed N=46): 1
- All treatment emergent AEs, Severe: % of subjects (Fed N=46): 2%
- All treatment emergent AEs, Severe: events (Fed N=46): 1
- All treatment emergent AEs, Severe: subjects (Fed N=46): 1
- All treatment emergent AEs, Total: events (Fed N=46): 40
- Constipation, drug-related AE: % of subjects (Fed N=46): 2%
- Constipation, drug-related AE: events (Fed N=46): 1
- Constipation, drug-related AE: subjects (Fed N=46): 1
